Measurements from US12686668B2, “Leukotriene synthesis inhibitors” (Naegis Pharmaceuticals Inc., priority 2019, dated 2026).

Experiments:
[1] = system: LTC4 production in MC/9 cells; test: MC/9 HPLC assay, inhibition of LTC4 production; format: cell-based; settings: Mus musculus; for inhibition at 3 µM: MC9, 3 μM, A23187 stimulated; for inhibition at 1 µM: MC9, Table 2 column 3, no concentration in head (1 μM according to b732), read-out: % Inhibition LTC4
Description: (§1) Cultured MC/9 cells (3×10^6 cells) in 1 mL HBSS were pre-incubated with a series of concentrations of compound solubilized in DMSO for 30 minutes. Production of leukotrienes were stimulated with the addition of 1 μM calcium ionophore (A23187), diluted from a 4 mM DMSO stock in HBSS, and incubated at room temperature for 20 minutes. The reaction was stopped with the addition of 500 μL of methanol containing 20 ng/mL prostaglandin B2 as an internal standard. Samples were collected and stored at −20° C. at least 2 hr or overnight before centrifuged at 13,000 rpm for 15 minutes and loaded onto C18 SEP-PAK columns (Canadian Lifesciences IS12000) for solid phase extraction. The leukotrienes were analyzed by HPLC using an ACE C18 column (4.5 mm×150 mm, 5 m) eluted with acetonitrile/methanol/water mixture with H3PO4, pH 3.5 (37:26:37) with a flow rate of 1.8 mL/min. The amount of LTB4 (Cayman Chemical, 20110) and LTC4 (Cayman Chemical, 20210) were calculated based on reference standards and the level of inhibition of LTB4 production induced by the test compounds was calculated relative to control samples. The results are provided in Table 2, where Compound No. refers to the compounds identified in Table 1.

[2] = system: LTB4 production in porcine or human whole blood; test: Whole blood HPLC assay, inhibition of LTB4 production; format: cell-based; settings: 5 point curve, porcine or human whole blood (not specified)
Description: Porcine or human whole blood (1 mL) was pre-incubated with a series of concentrations of compound solubilized in DMSO for 30 minutes. Production of leukotrienes were stimulated with the addition of 20 μM calcium ionophore (A23187), diluted from a 4 mM DMSO stock in HBSS, and incubated at room temperature for 20 minutes. In porcine blood 20 μM arachidonic acid was added in addition to the calcium ionophore. The blood was centrifuged at 2,000 rpm for 15 minutes, and the plasma fraction removed for further processing. Plasma samples were diluted with 500 μL acidified water (HCl pH 3.0) and loaded onto C18 SEP-PAK columns (Canadian Lifesciences IS12000) for solid phase extraction. The leukotrienes were analyzed by HPLC using an ACE C18 column (4.5 mm×150 mm, 5 m) eluted with acetonitrile/methanol/water mixture with H3PO4, pH 3.5 (37:26:37) with a flow rate of 1.8 mL/min. The amount of LTB4 (Cayman Chemical, 20110) was calculated based on reference standards and the level of inhibition of LTB4 production induced by the test compounds was calculated relative to control samples. The results provided in Table 3 are IC50 values calculated based on a 5 point curve, where Compound No. refers to the compounds identified in Table 1.

[3] = biological target: T1, recombinant human leukotriene A4 hydrolase enzyme (Homo sapiens, UniProt P09960); test: Amino-peptidase assay, alanine-4-nitroanalide; format: biochemical; settings: negative values = augmented peptidase activity, read-out: % Inhibition aminopeptidase-Alanine-4-nitroanalide activity of LTA4H (3 μM)
T1 construct: purchased Cayman Chemical 10007817
T1 sequence (P09960 1-611): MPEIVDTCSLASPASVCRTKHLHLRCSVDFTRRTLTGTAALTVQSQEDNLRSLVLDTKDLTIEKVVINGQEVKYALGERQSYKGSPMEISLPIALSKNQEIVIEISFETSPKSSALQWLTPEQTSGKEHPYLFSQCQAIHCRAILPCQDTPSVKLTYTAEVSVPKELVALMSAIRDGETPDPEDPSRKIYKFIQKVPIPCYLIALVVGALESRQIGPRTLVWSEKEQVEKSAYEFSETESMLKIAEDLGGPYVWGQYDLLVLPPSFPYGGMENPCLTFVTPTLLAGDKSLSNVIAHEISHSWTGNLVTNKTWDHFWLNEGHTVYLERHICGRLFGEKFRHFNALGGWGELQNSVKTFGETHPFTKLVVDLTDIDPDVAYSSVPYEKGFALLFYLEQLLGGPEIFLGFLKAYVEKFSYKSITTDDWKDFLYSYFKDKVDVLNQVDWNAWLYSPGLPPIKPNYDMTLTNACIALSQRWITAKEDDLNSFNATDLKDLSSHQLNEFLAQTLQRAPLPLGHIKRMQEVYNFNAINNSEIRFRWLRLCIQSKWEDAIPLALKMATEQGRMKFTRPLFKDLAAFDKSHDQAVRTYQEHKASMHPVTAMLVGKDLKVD
Description: A series of compound concentrations were pre-incubated in the absence of light with 0.5 μg of recombinant human leukotriene A4 hydrolase enzyme (Cayman Chemical 10007817) in 50 μL assay buffer (50 mM Tris-HCl, 100 mM KCl). The reaction was stimulated by adding 50 μL 6 mM alanine-4-nitroanilide (Sigma Aldrich A9325) in assay buffer. The amount of amino-peptidase activity was measured by determining the change in absorbance at 405 nm due to 4-nitroanaline production and comparing the rate of change to a reference standard (Sigma Aldrich 185310). Amino-peptidase activity was compared to control samples and the level of inhibition was calculated. Compounds that augment peptidase activity are represented by negative values.

[4] = system: LTB4 production in MC/9 cells; test: MC/9 HPLC assay, inhibition of LTB4 production; format: cell-based; settings: Mus musculus, MC9, Table 2 column 4, no concentration in head (1 μM according to b732), read-out: % Inhibition LTB4
Description: as §1

| Compound | IC50 [2] [µM] | inhibition at 3 µM [3] [%] | inhibition at 3 µM [1] [%] | inhibition at 1 µM [4] [%] | inhibition at 1 µM [1] [%] |
| --- | --- | --- | --- | --- | --- |
| CCC(O)(CCc1ccc(Oc2nc3ccccc3n2C)c(OC)c1)C(F)(F)F (centres unmarked) [Compound 105, 1-[4-(1-methyl-1H-benzimidazol-2-yloxy)-3-methoxyphenyl]-3-(trifluoromethyl)pentan-3-ol] |  | 75 | 70 to 90 |  | 30 to 50 |
| CCOc1cc(CCC(O)(c2ccccc2)C(F)(F)F)ccc1Oc1nc2ccccc2s1 (centres unmarked) [Compound 130, 4-[3-ethoxy-4-(1,3-benzothiazol-2-yloxy)phenyl]-1,1,1-trifluoro-2-phenylbutan-2-ol] |  |  |  | 10 to 30 | < 10 |
| COc1cc(CCC(C)O)ccc1Oc1nc2ccccc2s1 (centres unmarked) [Compound 122, 4-[4-(1,3-benzothiazol-2-yloxy)-3-methoxyphenyl]-butan-2-ol] |  |  |  | 30 to 50 | 30 to 50 |
| CC(O)(CCc1ccc(Oc2nc3ccccc3s2)cc1)C(F)(F)F (centres unmarked) [Compound 140, 4-[4-(1,3-benzothiazol-2-yloxy)phenyl]-1,1,1-trifluoro-2-methylbutan-2-ol] |  |  |  | < 10 | < 10 |
| COc1cc(CCC(C)(C)O)ccc1Oc1nc2ccccc2o1 [Compound 126, 4-[4-(1,3-benzoxazol-2-yloxy)-3-methoxyphenyl]-2-methylbutan-2-ol] |  |  |  | 10 to 30 | < 10 |
| CCC(=O)CCc1ccc(Oc2nc3ccccc3o2)c(OC)c1 [Compound 102, 1-[4-(1,3-benzoxazol-2-yloxy)-3-methoxyphenyl]pentan-3-one] |  | 0 to 50 |  | > 90 | 10 to 30 |
| CCC(O)(CCc1ccc(Oc2nc3ccccc3s2)c(Cl)c1)C(F)(F)F (centres unmarked) [Compound 151, 1-[4-(1,3-benzothiazol-2-yloxy)-3-chlorophenyl]-3-(trifluoromethyl)pentan-3-ol] |  |  |  | 10 to 30 | 10 to 30 |
| CCC(C)(O)CCc1ccc(Oc2nc3ccccc3o2)c(OC)c1 (centres unmarked) [Compound 127, 1-[4-(1,3-benzoxazol-2-yloxy)-3-methoxyphenyl]-3-methylpentan-3-ol] |  |  |  | < 10 | < 10 |
| CCC(N)CCc1ccc(Oc2nc3ccccc3s2)c(OC)c1 (centres unmarked) [Compound 135, 1-[4-(1,3-benzothiazol-2-yloxy)-3-methoxyphenyl]pentan-3-amine] |  |  |  | 30 to 50 | 10 to 30 |
| CCC(=O)CCc1ccc(Oc2nc3ccccc3s2)c(OC)c1 [Compound 101, 1-[4-(1,3-benzothiazol-2-yloxy)-3-methoxyphenyl]pentan-3-one] |  |  |  | < 10 | < 10 |
| CCC(O)(CCc1ccc(Oc2nc3ccccc3s2)c(OC2CCCC2)c1)C(F)(F)F (centres unmarked) [Compound 116, 1-[4-(1,3-benzothiazol-2-yloxy)-3-(cyclopentyloxy)-phenyl]-3-(trifluoromethyl)-pentan-3-ol] |  |  |  | < 10 | < 10 |

Continued, in another order:

| IC50 [2] [µM] | inhibition at 3 µM [3] [%] | Compound | inhibition at 3 µM [1] [%] | inhibition at 1 µM [4] [%] | inhibition at 1 µM [1] [%] |
| --- | --- | --- | --- | --- | --- |
| > 10 |  | CC(O)c1ccc(Oc2nc3ccccc3s2)cc1 (centres unmarked) [Compound 160, 1-[4-(1,3-benzothiazol-2-yloxy)phenyl]ethanol] | < 10 |  |  |
|  | > 75 | CCC(O)(CCc1ccc(Oc2nc3ccccc3s2)c(F)c1)C(F)(F)F (centres unmarked) [Compound 154, 1-[4-(1,3-benzothiazol-2-yloxy)-3-fluorophenyl]-3-(trifluoromethyl)pentan-3-ol] | < 10 | 50 to 70 | 30 to 50 |
|  | 25 to 50 | COc1cc(CCC(C)(O)c2ccccc2)ccc1Oc1nc2ccccc2s1 (centres unmarked) [Compound 123, 4-[4-(1,3-benzothiazol-2-yloxy)-3-methoxyphenyl]-2-(phenyl)butan-2-ol] |  | 50 to 70 | 10 to 30 |
|  | < 25 | COc1cc(Oc2nc3ccccc3s2)ccc1C(O)C(F)(F)F (centres unmarked) [Compound 182, 1-{4-[(1,3-benzothiazol-2-yl}oxy]-2-methoxyphenyl}-2,2,2-trifluoroethan-1-ol] | 10 to 30 |  |  |
|  | 50 to 75 | O=C(O)C1CCCN1Cc1ccc(Oc2nc3ccccc3s2)cc1 (centres unmarked) [Compound 165, 1-[4-(1,3-benzothiazol-2-yloxy)benzyl]pyrrolidine-2-carboxylic acid] | < 10 |  |  |
|  | 0 to 50 | CCOc1cc(CCC(O)(CC)C(F)(F)F)ccc1Oc1nc2ccccc2s1 (centres unmarked) [Compound 121, 1-[4-(1,3-benzothiazol-2-yloxy)-3-ethoxyphenyl]-3-(trifluoromethyl)pentan-3-ol] |  | 50 to 70 | 50 to 70 |
|  | > 75 | CC(C)(O)c1ccc(Oc2nc3ccccc3s2)cc1 [Compound 177, 2-[4-(1,3-benzothiazol-2-yloxy)phenyl]propan-2-ol] |  |  |  |
|  | 50 to 75 | CC(O)c1ccc(Oc2nc3c(F)cc(F)cc3s2)cc1 (centres unmarked) [Compound 180, 1-{4-[(4,6-difluoro-1,3-benzothiazol-2-yl)oxy]phenyl}ethanol] | < 10 |  |  |
|  | < 25 | CSc1cccc2sc(Oc3ccc(C(C)O)cc3)nc12 (centres unmarked) [Compound 176, 1-(4-{[4-(methylsulfanyl)-1,3-benzothiazol-2-yl]oxy}phenyl)ethanol] | < 10 |  |  |
|  | < 25 | CCC(=O)CCc1ccc(Oc2nc3ccccc3s2)cc1 [Compound 148, 1-[4-(1,3-benzothiazol-2-yloxy)phenyl]pentan-3-one] |  |  |  |
|  | 0 to 50 | CCC(O)(CCc1ccc(Oc2nc3ccc(OC)cc3s2)c(OC)c1)C(F)(F)F (centres unmarked) [Compound 109, 1-{4-[(6-methoxy-1,3-benzothiazol-2-yl)oxy]-3-methoxyphenyl}-3-(trifluoromethyl)pentan-3-ol] |  | 70 to 90 | 50 to 70 |
|  | < 25 | COc1cc(CCC(C)(O)c2ccccc2)ccc1Oc1nc2ccccc2o1 (centres unmarked) [Compound 128, 4-[4-(1,3-benzoxazol-2-yloxy)-3-methoxyphenyl]-2-phenylbutan-2-ol] | < 10 | < 10 | < 10 |
|  | 50 to 75 | CC(O)(CCc1ccc(Oc2nc3ccccc3s2)c(Cl)c1)C(F)(F)F (centres unmarked) [Compound 175, 4-[4-(1,3-benzothiazol-2-yloxy)-3-chlorophenyl]-1,1,1-trifluoro-2-methylbutan-2-ol] |  |  |  |
|  | 0 to 50 | COc1cc(C(C)(O)C(F)(F)F)ccc1Oc1nc2ccccc2s1 (centres unmarked) [Compound 173, 2-[4-(1,3-benzothiazol-2-yloxy)-3-methoxyphenyl]-1,1,1-trifluoropropan-2-ol] | 30 to 50 |  |  |
